What is called EC50 is the concentration needed to bring the measured effect to its halfway point.

These results are taken from patent publication US20240101531A1, “PYRIDINAMINE DERIVATIVES AND THEIR USE AS POTASSIUM CHANNEL MODULATORS” (Xenon Pharmaceuticals Inc., priority 2022, published 2024).

Structures are written as SMILES. Counter-ions that a name gives are not always drawn. Bounds are passed on as bounds.

For the assay, the target named is human KV7.2/KV7.3 (Homo sapiens (Human), UniProt O43525+O43526). The assay is described as follows: Potassium flux assay (IPG-2 AM dye). The format is cell-based. Conditions: TREX HEK 293 or HEK 293 cells expressing human KV7.2/KV7.3; arithmetic mean values. The procedure, abridged:
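EC50 from 16 concentrations (2-fold dilutions, top 30 μM), scaled between DMSO baseline and a known KV7.x modulator maximum. Signal is IPG-2 AM fluorescence (ex 530/em 558 nm) after 10 mM KCl challenge buffer addition, following 20 min room-temperature compound exposure of HEK 293 or TREX HEK 293 cells stably expressing human KV7.2/KV7.3.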

In the case of `Cc1ncc(Nc2nccc3cc(OCC4CCOC4)ccc23)cn1` (stereo not drawn) [Example 25, N-(2-methylpyrimidin-5-yl)-6-((tetrahydrofuran-3-yl)methoxy)isoquinolin-1-amine], the EC50 fell in the range of 1000 to 10000 nM. On to `CC[C@@H](OC)c1ccc2c(Nc3ccc(Cl)nc3)nccc2c1` [Example 130, (R)—N-(6-chloropyridin-3-yl)-6-(1-methoxypropyl)isoquinolin-1-amine], for which the 50% effective concentration (EC50) lay in the range of 10000 to 30000 nM. As to `CC1(COc2ccc3c(Nc4ccc(Cl)nc4)nccc3c2)CC1` [Example 179, N-(6-chloropyridin-3-yl)-6-((1-methylcyclopropyl)methoxy)isoquinolin-1-amine], the EC50 is 1000 to 10000 nM. Turning to `Cn1cc(CCOc2ccc3c(Nc4ccc(Cl)nc4)nccc3c2)cn1` [Example 99, N-(6-chloropyridin-3-yl)-6-(2-(1-methyl-1H-pyrazol-4-yl)ethoxy)isoquinolin-1-amine], the EC50 lay in the range of 1000 to 10000 nM. For `Clc1ccc(Nc2nccc3cc(NCC4CC4)ccc23)cn1` [Example 230, N^1-(6-chloropyridin-3-yl)-N^6-(cyclopropylmethyl)isoquinoline-1,6-diamine formate], the EC50 fell in the range of 10000 to 30000 nM. On to `Clc1ccc(Nc2nccc3cc(O[C@@H]4CCCN(Cc5ccccc5)C4)ccc23)cn1` [Example 108, (R)-6-((1-benzylpiperidin-3-yl)oxy)-N-(6-chloropyridin-3-yl)isoquinolin-1-amine], for which the concentration giving a half-maximal response (EC50) lay within 1000 to 10000 nM. Then `Clc1ccc(Nc2nccc3cc(OCc4cnc(Cc5cccnc5)o4)ccc23)cn1` [Example 158, N-(6-chloropyridin-3-yl)-6-((2-(pyridin-3-ylmethyl)oxazol-5-yl)methoxy)isoquinolin-1-amine], with 1000 to 10000 nM. Take `[2H]C([2H])(Oc1ccc2c(Nc3ccc(Cl)nc3)nccc2c1)c1cnn(C)c1` [Example 386, N-(6-chloropyridin-3-yl)-6-((1-methyl-1H-pyrazol-4-yl)methoxy-d2)isoquinolin-1-amine]: the EC50 is < 1000 nM.

As to `CC(Oc1ccc2c(Nc3cnc(Cl)nc3)nccc2c1)C1(C#N)CC1` (stereo not drawn) [Example 385, 1-(1-((1-((2-chloropyrimidin-5-yl)amino)isoquinolin-6-yl)oxy)ethyl)cyclopropane-1-carbonitrile], the EC50 was < 1000 nM. Regarding `Cc1c(COc2ccc3c(Nc4cnc(Cl)nc4)nccc3c2)cnn1C` [Example 352, N-(2-chloropyrimidin-5-yl)-6-((1,5-dimethyl-1H-pyrazol-4-yl)methoxy)isoquinolin-1-amine], the 50% effective concentration (EC50) was < 1000 nM. Turning to `O=S1(=O)CC(COc2ccc3c(Nc4ccc(Cl)nc4)nccc3c2)C1` [Example 300, 3-(((1-((6-chloropyridin-3-yl)amino)isoquinolin-6-yl)oxy)methyl)thietane 1,1-dioxide], the EC50 is < 1000 nM. `CO[C@@H](C)c1ccc2c(Nc3ccc(Cl)nc3)nccc2c1` [Example 133, (S)-N-(6-chloropyridin-3-yl)-6-(1-methoxyethyl)isoquinolin-1-amine]: the EC50 is 10000 to 30000 nM. Regarding `Clc1ncc(Nc2nccc3cc(OCCCc4cn[nH]c4)ccc23)cn1` [Example 389, 6-(3-(1H-pyrazol-4-yl)propoxy)-N-(2-chloropyrimidin-5-yl)isoquinolin-1-amine], the EC50 is < 1000 nM. `Cc1ncc(Nc2nccc3cc(OCc4ccncc4)ccc23)cn1` [Example 199, N-(2-methylpyrimidin-5-yl)-6-(pyridin-4-ylmethoxy)isoquinolin-1-amine]: the EC50 fell in the range of 1000 to 10000 nM.

Regarding `CCC1(COc2ccc3c(Nc4ccc(Cl)nc4)nccc3c2)COC1` [Example 328, N-(6-chloropyridin-3-yl)-6-((3-ethyloxetan-3-yl)methoxy)isoquinolin-1-amine], the half-maximal effective concentration (EC50) was < 1000 nM. Regarding `O=C(N[C@@H]1CCC[C@H](Oc2ccc3c(Nc4cnc(Cl)nc4)nccc3c2)C1)C(F)(F)F` [Example 375, N-((1R,3S)-3-((1-((2-chloropyrimidin-5-yl)amino)isoquinolin-6-yl)oxy)cyclohexyl)-2,2,2-trifluoroacetamide], the EC50 lay within 1000 to 10000 nM.

As for `O[C@@H]1COC[C@@H]1Oc1ccc2c(Nc3ccc(Cl)nc3)nccc2c1` (racemic) [Example 79, rac-(3R,4S)-4-((1-((6-chloropyridin-3-yl)amino)isoquinolin-6-yl)oxy)tetrahydrofuran-3-ol], the EC50 is 1000 to 10000 nM. Regarding `FC(F)Cn1cc(COc2ccc3c(Nc4ccc(Cl)nc4)nccc3c2)cn1` [Example 380, N-(6-chloropyridin-3-yl)-6-((1-(2,2-difluoroethyl)-1H-pyrazol-4-yl)methoxy)isoquinolin-1-amine], the EC50 was < 1000 nM. Consider `Clc1ccc(Nc2nccc3cc(OC[C@@H]4CCN(Cc5ccccc5)C4)ccc23)cn1` [Example 283, (R)-6-((1-benzylpyrrolidin-3-yl)methoxy)-N-(6-chloropyridin-3-yl)isoquinolin-1-amine], for which the concentration for a half-maximal effect (EC50) fell in the range of 1000 to 10000 nM. `COC1(COc2ccc3c(Nc4ccc(Cl)nc4)nccc3c2)CCC1` [Example 288, N-(6-chloropyridin-3-yl)-6-((1-methoxycyclobutyl)methoxy)isoquinolin-1-amine]: the EC50 is < 1000 nM.

In the case of `Clc1ccc(Nc2nccc3cc(Cn4nccn4)ccc23)cn1` [Example 425, 6-((2H-1,2,3-triazol-2-yl)methyl)-N-(6-chloropyridin-3-yl)isoquinolin-1-amine], the concentration giving a half-maximal response (EC50) lay within 1000 to 10000 nM. For the molecule `Cc1ncc(Nc2nccc3cc(OCC4(C#N)CC(F)(F)C4)ccc23)cn1` [Example 235, 3,3-difluoro-1-(((1-((2-methylpyrimidin-5-yl)amino)isoquinolin-6-yl)oxy)methyl)cyclobutane-1-carbonitrile formate], the concentration giving a half-maximal response (EC50) is < 1000 nM.

On to `CC(=O)N[C@H]1CC[C@@H](Oc2ccc3c(Nc4ccc(Cl)nc4)nccc3c2)CC1` [Example 316, N-(cis-4-((1-((6-chloropyridin-3-yl)amino)isoquinolin-6-yl)oxy)cyclohexyl)acetamide], for which the EC50 was < 1000 nM. As for `COCCS(=O)(=Nc1ccc2c(Nc3ccc(Cl)nc3)nccc2c1)C1CC1` (stereo not drawn) [Example 271, ((1-((6-chloropyridin-3-yl)amino)isoquinolin-6-yl)imino)(cyclopropyl)(2-methoxyethyl)-λ^6-sulfanone], the EC50 was in the range of 1000 to 10000 nM. Then `O[C@@H]1CC[C@@H](Oc2ccc3c(Nc4ccc(Cl)nc4)nccc3c2)C1` (racemic) [Example 103, rac-(1R,3R)-3-((1-((6-chloropyridin-3-yl)amino)isoquinolin-6-yl)oxy)cyclopentan-1-ol], with < 1000 nM; and `CC(=O)N1CCC(COc2ccc3c(Nc4ccc(Cl)nc4)nccc3c2)CC1` [Example 318, 1-(4-(((1-((6-chloropyridin-3-yl)amino)isoquinolin-6-yl)oxy)methyl)piperidin-1-yl)ethan-1-one], with < 1000 nM. `CC(C)C(C)(N)COc1ccc2c(Nc3ccc(Cl)nc3)nccc2c1` (stereo not drawn) [Example 176, 6-(2-amino-2,3-dimethylbutoxy)-N-(6-chloropyridin-3-yl)isoquinolin-1-amine hydrochloride]: the half-maximal effective concentration (EC50) was in the range of 10000 to 30000 nM.

In the case of `O[C@H]1C[C@H](Oc2ccc3c(Nc4ccc(Cl)nc4)nccc3c2)C1` [Example 96, (1r,3r)-3-((1-((6-chloropyridin-3-yl)amino)isoquinolin-6-yl)oxy)cyclobutan-1-ol], the EC50 is 1000 to 10000 nM. With `FC1(COc2ccc3c(Nc4ccc(Cl)nc4)nccc3c2)CCOC1` (stereo in doubt) [Example 365, (S)—N-(6-chloropyridin-3-yl)-6-((3-fluorotetrahydrofuran-3-yl)methoxy)isoquinolin-1-amine], the EC50 was < 1000 nM. As for `Clc1ccc(Nc2nccc3cc(Oc4cccnc4)ccc23)cn1` [Example 266, N-(6-chloropyridin-3-yl)-6-(pyridin-3-yloxy)isoquinolin-1-amine], the EC50 was in the range of 1000 to 10000 nM.

Consider `FC(F)Oc1ccc2c(Nc3ccc(Cl)nc3)nccc2c1` [Example 7, N-(6-chloropyridin-3-yl)-6-(difluoromethoxy)isoquinolin-1-amine], for which the EC50 fell in the range of 1000 to 10000 nM. Consider `Clc1ccc(Nc2nccc3cc(OCc4cnn5c4OCCC5)ccc23)cn1` [Example 84, N-(6-chloropyridin-3-yl)-6-((6,7-dihydro-5H-pyrazolo[5,1-b][1,3]oxazin-3-yl)methoxy)isoquinolin-1-amine], for which the EC50 lay within 10000 to 30000 nM. `CCn1ccc(COc2ccc3c(Nc4ccc(Cl)nc4)nccc3c2)n1` [Example 188, N-(6-chloropyridin-3-yl)-6-((1-ethyl-1H-pyrazol-3-yl)methoxy)isoquinolin-1-amine formate]: the EC50 lay within 1000 to 10000 nM. Consider `CN1CC(F)(COc2ccc3c(Nc4ccc(Cl)nc4)nccc3c2)C1` [Example 128, N-(6-chloropyridin-3-yl)-6-((3-fluoro-1-methylazetidin-3-yl)methoxy)isoquinolin-1-amine], for which the EC50 is 10000 to 30000 nM. For `Clc1ccc(Nc2nccc3cc(OCc4cncnc4)ccc23)cn1` [Example 182, N-(6-chloropyridin-3-yl)-6-(pyrimidin-5-ylmethoxy)isoquinolin-1-amine], the EC50 is < 1000 nM. Consider `C[C@@H](COc1ccc2c(Nc3ccc(Cl)nc3)nccc2c1)c1cnn(C)c1` [Example 159, (R)—N-(6-chloropyridin-3-yl)-6-(2-(1-methyl-1H-pyrazol-4-yl)propoxy)isoquinolin-1-amine], for which the EC50 is 1000 to 10000 nM. Turning to `Cc1ccc(Nc2nccc3cc(OCC4CC4)cnc23)cn1` [Example 256, 3-(cyclopropylmethoxy)-N-(6-methylpyridin-3-yl)-1,7-naphthyridin-8-amine], the EC50 was 1000 to 10000 nM.

With `CC1(C)CCC(COc2ccc3c(Nc4cnc(Cl)nc4)nccc3c2)O1` (stereo not drawn) [Example 420], the EC50 is 1000 to 10000 nM. Consider `COc1cc(Nc2nccc3cc(OCC4(C)COC4)ccc23)cnc1C` [Example 187, N-(5-methoxy-6-methylpyridin-3-yl)-6-((3-methyloxetan-3-yl)methoxy)isoquinolin-1-amine formate], for which the EC50 is < 1000 nM.
